The values that follow come from paper doi:10.1101/2023.12.04.569845, “Identification of 4-(6-((2-methoxyphenyl)amino)pyrazin-2-yl)benzoic acids as CSNK2A inhibitors with antiviral activity and improved selectivity over PIM3” (bioRxiv, 2023).

Like-named read-outs stand apart in the source and are kept apart here.

What all share (experiment): biochemical
Design in all cases: Thermal shift (DSF, SYPRO Orange) Tm shift of recombinant kinase domains at 10 uM compound

For assay [1], the target named is T1, TTK (Homo sapiens, UniProt P33981).
T1 sequence (P33981 1-857): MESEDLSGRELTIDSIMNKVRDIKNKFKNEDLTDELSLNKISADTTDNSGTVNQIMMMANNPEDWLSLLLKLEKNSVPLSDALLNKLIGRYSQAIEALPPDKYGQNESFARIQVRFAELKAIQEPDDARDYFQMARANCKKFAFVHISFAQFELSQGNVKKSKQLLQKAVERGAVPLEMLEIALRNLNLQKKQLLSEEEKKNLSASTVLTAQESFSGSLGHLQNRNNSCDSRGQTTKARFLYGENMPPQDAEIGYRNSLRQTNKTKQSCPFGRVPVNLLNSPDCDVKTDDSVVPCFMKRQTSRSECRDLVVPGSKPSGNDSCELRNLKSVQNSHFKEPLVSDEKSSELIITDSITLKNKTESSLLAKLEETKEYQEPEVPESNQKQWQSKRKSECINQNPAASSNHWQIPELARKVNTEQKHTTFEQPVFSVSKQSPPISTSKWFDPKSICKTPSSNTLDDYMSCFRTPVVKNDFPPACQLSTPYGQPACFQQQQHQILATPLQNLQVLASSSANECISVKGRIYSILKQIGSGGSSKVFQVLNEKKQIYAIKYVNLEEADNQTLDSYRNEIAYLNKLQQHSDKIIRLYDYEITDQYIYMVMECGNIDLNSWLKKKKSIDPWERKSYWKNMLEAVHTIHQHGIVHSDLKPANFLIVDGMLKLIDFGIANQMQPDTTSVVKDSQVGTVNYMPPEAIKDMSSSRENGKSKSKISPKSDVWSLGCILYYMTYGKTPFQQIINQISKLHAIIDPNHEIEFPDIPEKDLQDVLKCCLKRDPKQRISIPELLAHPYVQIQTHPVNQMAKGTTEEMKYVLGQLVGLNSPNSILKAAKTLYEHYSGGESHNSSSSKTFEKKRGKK
Protocol: (§1) S23 Thermal stability kinase selectivity. The assay was performed as previously described. 9,10 Briefly, recombinant protein kinase domains at a concentration of 2 μM were mixed with 10 μM compound in a buffer containing 20 mM HEPES, pH 7.5, and 500 mM NaCl. SYPRO Orange (5000×, Invitrogen) was added as a fluorescence probe (1 µl per mL). Subsequently, temperature-dependent protein unfolding profiles were measured using the QuantStudio™ 5 realtime PCR machine (Thermo Fisher). […] The temperature was raised with a step rate of 3°C per minute. Data points were analysed with the internal software (Thermal Shift SoftwareTM Version 1.4, Thermo Fisher) using the Boltzmann equation to determine the inflection point of the transition curve.

For assay [2], the target named is T2, MAP2K6 (Homo sapiens, UniProt P52564).
T2 sequence (P52564 1-334): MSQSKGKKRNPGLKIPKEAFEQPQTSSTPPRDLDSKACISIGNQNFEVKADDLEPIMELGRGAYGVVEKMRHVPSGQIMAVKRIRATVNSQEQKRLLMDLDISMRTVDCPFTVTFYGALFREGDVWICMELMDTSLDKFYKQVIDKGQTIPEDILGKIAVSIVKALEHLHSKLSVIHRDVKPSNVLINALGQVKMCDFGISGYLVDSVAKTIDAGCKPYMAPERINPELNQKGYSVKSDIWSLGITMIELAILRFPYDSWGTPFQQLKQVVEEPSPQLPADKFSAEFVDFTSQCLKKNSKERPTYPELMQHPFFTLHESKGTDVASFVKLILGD
Protocol: as §1

In assay [3] the target is T3, LOK (Homo sapiens, UniProt O94804).
T3 construct: gene STK10
Protocol: as §1

Assay [4] concerns the target T4, CAMK4 (Homo sapiens, UniProt Q16566).
T4 sequence (Q16566 1-473): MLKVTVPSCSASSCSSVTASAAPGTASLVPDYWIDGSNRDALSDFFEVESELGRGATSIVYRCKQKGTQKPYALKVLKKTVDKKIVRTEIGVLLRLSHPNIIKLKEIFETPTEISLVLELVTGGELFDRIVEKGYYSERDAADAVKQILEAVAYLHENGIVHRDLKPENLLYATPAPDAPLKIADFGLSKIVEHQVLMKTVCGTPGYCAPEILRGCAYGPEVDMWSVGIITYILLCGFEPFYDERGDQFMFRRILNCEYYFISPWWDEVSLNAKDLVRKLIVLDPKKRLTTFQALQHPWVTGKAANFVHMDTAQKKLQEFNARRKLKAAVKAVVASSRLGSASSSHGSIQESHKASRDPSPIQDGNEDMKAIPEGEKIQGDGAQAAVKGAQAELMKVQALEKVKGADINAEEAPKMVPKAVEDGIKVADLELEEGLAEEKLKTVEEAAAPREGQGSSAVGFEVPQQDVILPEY
Protocol: as §1

Assay [5] deals with TAF1 (Homo sapiens, UniProt P21675).
Protocol: as §1
The target in assay [6] is T5, MST3 (Homo sapiens, UniProt Q9Y6E0).
T5 construct: gene STK24
T5 sequence (Q9Y6E0 whole entry): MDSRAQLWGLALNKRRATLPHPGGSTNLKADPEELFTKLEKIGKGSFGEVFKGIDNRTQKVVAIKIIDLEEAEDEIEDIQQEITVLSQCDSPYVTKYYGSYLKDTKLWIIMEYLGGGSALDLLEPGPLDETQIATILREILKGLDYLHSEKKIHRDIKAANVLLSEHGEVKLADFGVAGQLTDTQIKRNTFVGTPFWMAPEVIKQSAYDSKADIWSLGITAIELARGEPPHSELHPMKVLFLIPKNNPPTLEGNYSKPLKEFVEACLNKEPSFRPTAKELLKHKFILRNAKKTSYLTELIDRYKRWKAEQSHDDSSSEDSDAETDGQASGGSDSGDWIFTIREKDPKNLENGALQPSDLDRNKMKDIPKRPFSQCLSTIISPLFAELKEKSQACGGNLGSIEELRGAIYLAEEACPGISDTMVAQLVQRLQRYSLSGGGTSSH
Protocol: as §1

T3 sequence (O94804 whole entry): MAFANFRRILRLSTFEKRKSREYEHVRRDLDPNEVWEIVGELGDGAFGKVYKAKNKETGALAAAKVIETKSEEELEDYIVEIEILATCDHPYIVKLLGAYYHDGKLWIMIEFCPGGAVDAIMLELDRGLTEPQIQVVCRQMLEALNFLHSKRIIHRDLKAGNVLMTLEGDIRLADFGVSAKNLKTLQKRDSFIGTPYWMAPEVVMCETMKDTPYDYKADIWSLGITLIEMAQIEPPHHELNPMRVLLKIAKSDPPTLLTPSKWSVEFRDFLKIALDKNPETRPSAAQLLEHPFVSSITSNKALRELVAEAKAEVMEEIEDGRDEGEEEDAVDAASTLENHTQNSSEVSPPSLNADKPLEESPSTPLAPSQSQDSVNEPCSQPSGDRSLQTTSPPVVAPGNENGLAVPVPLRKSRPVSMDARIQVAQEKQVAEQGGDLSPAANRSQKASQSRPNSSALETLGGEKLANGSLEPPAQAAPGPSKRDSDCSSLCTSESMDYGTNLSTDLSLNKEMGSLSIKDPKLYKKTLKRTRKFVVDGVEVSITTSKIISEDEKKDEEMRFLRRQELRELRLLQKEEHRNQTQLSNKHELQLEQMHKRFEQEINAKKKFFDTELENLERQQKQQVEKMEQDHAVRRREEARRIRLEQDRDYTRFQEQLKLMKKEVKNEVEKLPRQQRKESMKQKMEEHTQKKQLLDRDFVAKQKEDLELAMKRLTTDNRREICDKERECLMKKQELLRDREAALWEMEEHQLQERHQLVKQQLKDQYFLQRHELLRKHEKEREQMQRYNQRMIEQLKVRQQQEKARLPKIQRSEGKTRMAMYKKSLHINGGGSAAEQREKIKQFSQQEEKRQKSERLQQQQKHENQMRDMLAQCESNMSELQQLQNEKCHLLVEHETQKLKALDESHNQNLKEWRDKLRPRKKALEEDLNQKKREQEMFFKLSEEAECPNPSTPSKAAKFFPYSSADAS
Chain of TAF1 (P21675 whole entry): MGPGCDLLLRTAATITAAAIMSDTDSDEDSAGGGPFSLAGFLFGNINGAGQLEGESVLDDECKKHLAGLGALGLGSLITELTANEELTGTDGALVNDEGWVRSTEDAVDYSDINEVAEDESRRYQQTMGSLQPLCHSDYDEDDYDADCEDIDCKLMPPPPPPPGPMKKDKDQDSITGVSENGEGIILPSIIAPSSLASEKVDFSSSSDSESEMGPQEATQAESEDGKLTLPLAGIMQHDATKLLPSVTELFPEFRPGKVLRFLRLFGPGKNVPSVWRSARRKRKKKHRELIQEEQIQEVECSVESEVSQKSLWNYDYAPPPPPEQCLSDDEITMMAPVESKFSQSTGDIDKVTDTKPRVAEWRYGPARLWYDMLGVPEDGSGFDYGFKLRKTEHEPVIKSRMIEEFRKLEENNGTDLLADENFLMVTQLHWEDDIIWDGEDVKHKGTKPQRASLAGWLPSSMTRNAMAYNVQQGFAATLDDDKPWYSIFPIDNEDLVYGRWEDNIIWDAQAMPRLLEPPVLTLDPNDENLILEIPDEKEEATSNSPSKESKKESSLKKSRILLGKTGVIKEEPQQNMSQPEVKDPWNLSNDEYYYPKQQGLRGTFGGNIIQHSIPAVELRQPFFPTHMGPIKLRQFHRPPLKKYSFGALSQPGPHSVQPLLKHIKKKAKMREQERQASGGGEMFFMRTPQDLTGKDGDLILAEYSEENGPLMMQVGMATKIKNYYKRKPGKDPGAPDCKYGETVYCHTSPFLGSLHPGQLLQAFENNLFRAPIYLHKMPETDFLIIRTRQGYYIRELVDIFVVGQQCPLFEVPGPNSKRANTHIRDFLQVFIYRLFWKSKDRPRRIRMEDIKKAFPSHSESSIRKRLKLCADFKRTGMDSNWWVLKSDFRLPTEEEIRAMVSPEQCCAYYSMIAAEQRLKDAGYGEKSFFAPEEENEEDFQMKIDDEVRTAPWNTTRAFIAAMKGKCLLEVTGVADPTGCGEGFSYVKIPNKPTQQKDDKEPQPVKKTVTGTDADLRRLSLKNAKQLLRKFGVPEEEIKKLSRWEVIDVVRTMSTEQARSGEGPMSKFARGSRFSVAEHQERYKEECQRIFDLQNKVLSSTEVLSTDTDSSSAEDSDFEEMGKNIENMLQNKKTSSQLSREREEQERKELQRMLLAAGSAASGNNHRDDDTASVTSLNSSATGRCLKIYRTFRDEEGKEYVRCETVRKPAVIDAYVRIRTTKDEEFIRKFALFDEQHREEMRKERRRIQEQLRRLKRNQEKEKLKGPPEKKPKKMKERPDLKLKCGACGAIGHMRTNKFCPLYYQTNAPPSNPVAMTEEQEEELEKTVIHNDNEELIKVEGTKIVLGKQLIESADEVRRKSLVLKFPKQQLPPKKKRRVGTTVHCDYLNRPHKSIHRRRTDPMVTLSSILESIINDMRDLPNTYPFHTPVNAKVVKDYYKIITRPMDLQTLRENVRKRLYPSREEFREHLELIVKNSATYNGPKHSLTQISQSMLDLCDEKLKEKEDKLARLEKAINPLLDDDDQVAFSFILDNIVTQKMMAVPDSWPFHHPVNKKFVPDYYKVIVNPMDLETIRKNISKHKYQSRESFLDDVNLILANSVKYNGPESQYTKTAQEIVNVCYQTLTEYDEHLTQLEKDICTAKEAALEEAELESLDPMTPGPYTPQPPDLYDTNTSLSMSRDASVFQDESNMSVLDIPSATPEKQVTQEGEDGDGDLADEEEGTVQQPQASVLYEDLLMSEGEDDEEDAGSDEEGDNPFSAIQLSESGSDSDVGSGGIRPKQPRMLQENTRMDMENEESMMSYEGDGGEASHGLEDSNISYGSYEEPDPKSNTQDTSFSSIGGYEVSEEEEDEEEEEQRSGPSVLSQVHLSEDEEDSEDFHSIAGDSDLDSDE

Regarding `CC(C)Oc1ccc2ccn(-c3cncc(-c4ccc(C(=O)O)cc4)n3)c2c1` [6c], the ΔTm at 10 µM in assay [1] (read-out: 6c) is 1 °C; in assay [2] (read-out: 6c), 3 °C; in assay [3] (read-out: 6c) it was 4 °C; in assay [4] (read-out: 6c), 0 °C; in assay [5] (read-out: 6c) it was 1 °C; in assay [6] (read-out: 6c), -3 °C.
`COc1ccc(OC(C)C)cc1Nc1cncc(-c2ccc(C(=O)O)cc2)n1` [7c]: the ΔTm at 10 µM in assay [1] (read-out: 7c) is 0 °C; in assay [2] (read-out: 7c), 0 °C; in assay [3] (read-out: 7c), 4 °C; in assay [4] (read-out: 7c) it was -1 °C; in assay [5] (read-out: 7c) it was 1 °C; in assay [6] (read-out: 7c), -3 °C.
On to `CC(C)Nc1ccc2cnn(-c3cncc(-c4ccc(C(=O)O)cc4)n3)c2c1` [compound 2, 2], for which the ΔTm at 10 µM in assay [1] (read-out: 2) was found to be 1 °C; in assay [2] (read-out: 2) it was 2 °C; in assay [3] (read-out: 2), 8 °C; in assay [4] (read-out: 2), 1 °C; in assay [5] (read-out: 2), 0 °C; in assay [6] (read-out: 2) it was 1 °C.
